Source: patent US20240240226A1, “FLUOROGENIC ASSAY FOR RAPID SCREENING OF BACTERIAL BETA-LACTAMASE ACTIVITY” (The Board of Trustees of the Leland Stanford Junior …, priority 2021, published 2024)

Tests used:
[1] = molecular target: T1, horseradish peroxidase (HRP) (Armoracia rusticana, UniProt P00433); assay: Amplex red fluorescence turn-on with HRP and H2O2; type: biochemical; conditions: HRP 1 unit/mL, H2O2 1 uM, 10 μM AR in PBS, room temperature, 5 min
T1 sequence (P00433 31-338): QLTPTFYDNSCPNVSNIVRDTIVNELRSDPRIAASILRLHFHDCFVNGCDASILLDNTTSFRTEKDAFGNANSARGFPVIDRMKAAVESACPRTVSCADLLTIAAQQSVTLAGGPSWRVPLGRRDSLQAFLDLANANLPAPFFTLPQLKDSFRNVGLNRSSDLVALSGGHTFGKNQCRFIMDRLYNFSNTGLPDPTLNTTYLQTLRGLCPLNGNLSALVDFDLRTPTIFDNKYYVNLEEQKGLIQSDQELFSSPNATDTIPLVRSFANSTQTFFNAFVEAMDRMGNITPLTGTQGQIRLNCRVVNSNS
Protocol: FIG. 6 illustrates the fluorescence spectra of CDA and Amplex red. a) Fluorescent emission spectra of PBS, CDA, and AR (10 μM probes in PBS; excitation, 525 nm). b) Fluorescent emission spectra of CDA treated with esterase (1 μg/mL), TEM-1 Bla (100 nM) and H2O2 (1 mM) at room temperature for 8 hours. c) Fluorescent emission spectra of AR and AR treated with HRP and H2O2 at room temperature for 5 min (10 μM AR in PBS, HRP 1 unit/mL, H2O2 1 uM) (excitation, 525 nm). A.U. indicates arbitrary units.
The synthesis of CDA is outlined in Scheme 1 (FIG. 28). DARR was prepared from resazurin sodium salt through reduction and acetylation (Han et al., Chemistry (2016) 11: 818-822) and conjugated to the oxidized cephalosporin chloride with a self-immolative linker 4-mercaptobenzyl alcohol to afford CDA after reduction and deprotection. When incubated with a recombinant class A cephalosporin-hydrolyzing β-lactamase TEM-1 (TEM-1 Bla, FIGS. 7 and 8), esterase, and hydrogen peroxide (H2O2), CDA generated approximately 1200-fold fluorescence turn-on (FIGS. 1b and 6b).

esterase = assay: DARR response to esterase and H2O2; type: biochemical; conditions: esterase 1 μg/mL, different concentrations of H2O2, room temperature
Protocol: FIG. 11 illustrates that esterase sensitizes DARR in response to H2O2. a) Structure of DARR and its hydrolysis by esterase and oxidation into fluorescent resorufin by H2O2. b) Fluorescence enhancement of DARR treated with esterase (1 μg/mL) and different concentrations of H2O2 at room temperature. Data were collected on a Tecan Safire microplate reader with excitation at 570 nm and emission at 600 nm. A.U. indicates arbitrary units.
As oxidation is the essential step in converting β-lactamase/esterase processed CDA to resorufin, the stability of CDA was evaluated in different concentrations of H2O2 (FIG. 2a). […] The sulfur center of CDA was also stable in H2O2 (1 mM) (FIG. 9).

[2] = pH=8; cited from earlier work

CC(=O)N1c2ccc(O)cc2Oc2cc(O)ccc21 [Amplex red, 10-Acetyl-3,7-dihydroxyphenoxazine]
fluorescence turn-on [1]: 413 fold

CC(=O)Oc1ccc2c(c1)Oc1cc(OC(C)=O)ccc1N2 [DARR, 10H-phenoxazine-3,7-diyl diacetate]
response to esterase (esterase): fast response to esterase

O=c1ccc2nc3ccc(O)cc3oc-2c1 [resorufin]
fluorescence quantum yield ϕ [2]: 0.75
